One experiment relates to 4T1 tumors. In words: 4T1 mammary tumor model. Type of experiment: in vivo, mouse. From the text: (§1) Tumor inductions and treatment experiments.
(§2) Isolation of tumor-infiltrating cells.
(§3) Flow cytometry staining and analysis.

Experiment [1] relates to OVA-transduced EO771 tumor cells. In words: In vitro T cell killing assay (OT-I). It is filed as cell-based, mouse. The conditions noted are these: in presence of FEXO-treated macrophages. The protocol:
In vitro T cell killing assays. Ovalbumin (OVA)-expressing EO771 cells alone or co-cultured with macrophages at a ratio of 1:2 were plated into 12-well plates. The following day, OT-I T cells pre-activated by OVA257-264 were added to the plates at the indicated ratio. After co-culture for another 48 hours, the tumor cells were harvested and counted to determine T cell killing ability.

Another experiment concerns B16-GM tumors. In words: B16-GM melanoma model.
Experiment [2] deals with CT26 tumors. The experiment is described as follows: CT26 tumor model with or without OVA-induced allergic airway disease. It is filed as in vivo, mouse.
Source text: as §1, §2, §3

Another experiment deals with EO771 tumors.
Source text: as §1, §2, §3

The next experiment relates to CD8+ T cells. The experiment is described as follows: In vitro co-culture of macrophages with T cells. It is filed as cell-based, mouse. The procedure:
In vitro co-culture with T cells. Spleens from wild-type C57BL/6 or BALB/c mice were harvested and filtered through a […] cell strainer to generate a single-cell suspension. After red blood cell lysis, splenocytes were counted and plated in complete Roswell Park Memorial Institute 1640 medium supplemented with […] b-mercaptoethanol and 10 mM HEPES onto 12-well plates coated with […] anti-CD3 (clone 145-2C11, BioLegend) and […] anti-CD28 (clone 37N, BioLegend) antibodies. Spleen T cells were activated for 48 hours before co-culture with macrophages. To educate the macrophages, we co-cultured naïve BMDMs with tumor cells at a ratio of 1:1 or with tumor cell-derived conditioned medium for 48 hours. Macrophages were seeded with activated T cells at a ratio of 5:1. After co-culture for another 24 or 48 hours, T cells were collected for flow cytometry analysis.
as §3

For another experiment, the system named is EMT6 tumors. In words: EMT6 tumor model with or without OVA-induced allergic airway disease. It is filed as in vivo, mouse.
Source text: as §1, §2, §3

Another experiment deals with macrophages. In words: Intracellular calcium measurement (Fluo-Forte). Type of experiment: cell-based, mouse. The conditions noted are these: after histamine or TCM treatment. The procedure:
Intracellular calcium measurement. Intracellular Ca2+ was determined using the Fluo-Forte calcium assay kit (Enzo Life Sciences) according to the manufacturer's instructions. Fluorescence was measured using a BD FACSCanto II Flow Cytometer.
Background: A change in cytosolic calcium serves as a functional read-out for many receptors and channels.

Experiment [3] concerns CT26 tumors. In words: CT26 colorectal carcinoma model. The conditions noted are these: WT mice.
Experimental: Tumor inductions and treatment experiments. […] For the CT26 model, 2×10^5 CT26 cells were subcutaneously injected into the back of BALB/c mice. […] Treatments were given as single agents or in combination, with the following regimen for each drug. […] Treatments were initiated on day 5 after tumor inoculation for the entire duration of the experiment. […] Anti-VISTA antibody (clone 13F3, Bio X Cell, 300 mg/mouse) was injected subcutaneously every day for 10 days starting on day 7, followed by continuous injection every 2 days for the rest of the duration of the experiment (Le Mercier et al., 2014). […] Tumor size was measured by calipers every second or third day when tumors were palpable, and the volume was calculated using the formula V=as (width×width×length)/2.
The test system of a further experiment is LLC tumors. The experiment is described as follows: LLC lung carcinoma model. To be noted: FEXO-treated vs vehicle-treated. Type of experiment: in vivo, mouse.
Source text: as §1, §2, §3

Experiment [4] deals with bone marrow-derived macrophages (BMDMs). To be noted: TCM-treated WT BMDMs; FEXO 10 mM, 48 h.
Experimental: Generation of naïve bone marrow-derived macrophages (BMDMs). Bone marrow cells were collected from femurs obtained from 8- to 10-week-old C57BL/6 or BALB/c mice. After red blood cell lysis, bone marrow cells were seeded at a density of 5×10^6 cells/150×15 mm Petri dish and cultured at 37° C. in complete Dulbecco modified Eagle medium (DMEM) containing 20% L929 cell-conditioned medium, providing macrophage colony-stimulating factor. Macrophages were ready for use on day 7 following a fresh medium change on day 4.
Macrophage polarization and stimulation. To polarize macrophages toward an M1-like phenotype, we stimulated PBMC-derived macrophages or BMDMs with IFN-g (20 ng/ml, PeproTech) for 48 hours. To induce an M2-like phenotype, we treated THP-1-derived macrophages or BMDMs with IL-4 (20 ng/mL, PeproTech) for 48 hours. […] To stimulate macrophages with tumor cell-derived conditioned medium (TCM), we cultured BMDMs with complete medium containing 50% TCM (volume).
Flow cytometry staining and analysis. Live single cells were sub-gated by staining with Fixable Viability Dye eFluor 450 (eBioscience) for 15 minutes at 4° C. For blocking of Fc receptors, cells were then pre-incubated with purified anti-CD16/32 antibody (clone 93, BioLegend) for 10 minutes on ice before immunostaining. […]
Setting [5] is: FEXO-treated WT mice vs controls.
The mark [6] stands for this setting: FEXO-treated vs vehicle-treated WT mice.
Where [7] appears, read: PD-L1-/- mice treated with FEXO.

Experimental for B16-GM tumors: Tumor inductions and treatment experiments. […] For LLC and B16-GM models, 2×10^5 tumor cells were subcutaneously injected into the back of C57BL/6 mice. […] Treatments were given as single agents or in combination, with the following regimen for each drug. […] Treatments were initiated on day 5 after tumor inoculation for the entire duration of the experiment. […] Anti-VISTA antibody (clone 13F3, Bio X Cell, 300 mg/mouse) was injected subcutaneously every day for 10 days starting on day 7, followed by continuous injection every 2 days for the rest of the duration of the experiment (Le Mercier et al., 2014). For in vivo CD8+ T cell depletion, mice were treated with 200 mg of anti-CD8 antibody every 3-4 days starting at 3 days before B16-GM tumor inoculation. […] Tumor size was measured by calipers every second or third day when tumors were palpable, and the volume was calculated using the formula V=as (width×width×length)/2.
Isolation of tumor-infiltrating cells. Mouse tumor samples were chopped with scissors and then subjected to enzymatic digestion with 2 mg/ml collagenase A (Roche) in DMEM for 1 hour at 37° C. Next, tissues were filtered through 70-mm filters (BD Biosciences) to achieve single-cell suspensions. After treatment with red blood cell lysis buffer for 5 minutes at room temperature, all samples were washed and re-suspended in flow cytometry buffer (phosphate-buffered saline/0.5% albumin/2 mM EDTA) or DMEM depending on further use.
Flow cytometry staining and analysis. Live single cells were sub-gated by staining with Fixable Viability Dye eFluor 450 (eBioscience) for 15 minutes at 4° C. For blocking of Fc receptors, cells were then pre-incubated with purified anti-CD16/32 antibody (clone 93, BioLegend) for 10 minutes on ice before immunostaining. After one wash with flow cytometry buffer, cells were incubated with appropriate dilutions of various combinations of the following antibodies. Primary antibodies to cell surface markers directed against CD45 (30-F11), CD3 (145-2C11), CD8a (53¬6.7), CD11b (M1/70), Gr-1 (RB6-8C5), F4/80 (BM8), CD206 (C068C2), I-A/I-E (M5/114.15.2), VISTA (MHSA), Tim-3 (B8.2C12), CD11c (N418), CD24 (M1/69), GITRL (YGL 386), ICOSL (HK5.3), 4-1BBL (TKS-1), CD276 (RTAA15), OX40L (RM134L), Galectin-9 (RG9-35), PD-L1 (10F.9G2), and PD-L2 (TY25) were from BioLegend; against HRH1 (480054), from R&D Systems; against HRH1 (AHR-001), from Alomone Labs; and against Siglec-F (E50-2440), from BD Biosciences. For intracellular staining, cells were fixed, permeabilized using Foxp3/Transcription Factor Staining Buffer Set (eBioscience), and then stained with fluorochrome-conjugated antibodies to Ki-67 (16A8) and PRF1 (S16009A) from BioLegend.

As to `CC(C)(C(=O)O)c1ccc(C(O)CCCN2CCC(C(O)(c3ccccc3)c3ccccc3)CC2)cc1` (centres unmarked) [FEXO, fexofenadine], the “VISTA expression on alveolar macrophages from lung metastases” value with 4T1 tumors (FEXO-treated WT mice bearing 4T1 tumor vs controls) was “downregulated”. In addition, the “VISTA on TAMs” value in the experiment with 4T1 tumors (FEXO-treated vs vehicle-treated) and in the experiment on LLC tumors was “Decreased VISTA on TAMs” throughout. Moreover, the “OT-I cell-mediated killing of OVA-transduced EO771 tumor cells” value in experiment [1] is given as “increased ovalbumin (OVA)-specific OT-I cell-mediated killing”. Besides, the “VISTA expression on TAMs” value with B16-GM tumors (setting [5]) and in the experiment on EO771 tumors (setting [5]) was “Reduced VISTA expression” each time. Besides, the “inhibition of B16-GM tumor growth under CD8+ T cell depletion” value in the experiment on B16-GM tumors (FEXO-treated WT mice, anti-CD8 antibodies) is “blocked by depleting CD8+ T cells”. Further, the “numbers of IFN-g+ and PRF1+ CD8+ T cells” value with B16-GM tumors (setting [6]) and with EO771 tumors (setting [6]) was “increased numbers” in each case. Also, the tumor growth result in the experiment on B16-GM tumors (setting [6]) and with EO771 tumors (setting [6]) was “reduced tumor growth” in each case. Further, the B16-GM lung metastases entry in the experiment on B16-GM tumors (after surgical removal of primary melanomas at 100 mm3, FEXO vs vehicle) is “inhibited”. Besides, in the experiment with CT26 tumors [2] (OVA-allergic BALB/c mice), the “allergy-increased CT26 tumor growth” value is on record as “largely blocked by FEXO treatment”. The “sensitivity of tumors to ICB therapy with FEXO treatment” value is “largely restored sensitivity” in the experiment with CT26 tumors [2] (allergic mice, ICB+FEXO) and “largely restored sensitivity” in the experiment on EMT6 tumors (allergic mice, ICB+FEXO). In addition, in the experiment on EO771 tumors (setting [7]), the survival entry is “dramatically prolonged survival”. For the same compound, the tumor inhibition result in the experiment on EO771 tumors (setting [7]) was “most effective tumor inhibition”. Moreover, the T cell activation/killing entry in the experiment with CD8+ T cells (FEXO treatment of HRH1-/- macrophages vs vehicle-treated HRH1-/- macrophages) is listed as “did not increase”. In addition, in the experiment with CD8+ T cells (FEXO-treated macrophages cultured with WT splenic T cells), the “TAM-mediated T cell suppression (T cell proliferation, IFN-g, PRF1)” value was “abrogated TAM-mediated T cell suppression”. Moreover, the “allergy-accelerated EMT6 tumor growth” value in the experiment with EMT6 tumors (OVA-allergic BALB/c mice) is “largely blocked by FEXO treatment”. Further, the “intracellular free Ca2+ levels” value in the experiment on macrophages was “higher in WT macrophages than in HRH1−/− macrophages and FEXO-treated WT macrophages”. Moreover, the CT26 tumor growth result with CT26 tumors [3] is reported as “delayed tumor growth”. The “M1-M2 polarization status (MHCII, CD206)” value in experiment [4] is listed as “polarized macrophages toward an M1-like phenotype”.

The values above are taken from patent US20250242017A1, “HISTAMINE AND HRH1 SIGNALING ACTIVITY AS BIOMARKERS AND ASSOCIATED METHODS” (Board of Regents, The University of Texas System, priority 2022, published 2025).
